How the values were obtained:
[1] = HPLC lipophilicity on IAM (immobilized artificial membrane, phosphatidylcholine) stationary phase; type: physicochemical; conditions: pH 7.4; for Log k IAM: Table S2; for log kw IAM: intercept, linear extrapolation to water; for log kw IAM / -S IAM: ACN/20 mM phosphate buffer; for -S IAM: slope of Soczewiński–Wachtmeister equation
Description: (§1) For the evaluation of the compounds the following stationary phases were used: C-18; biomimetic, IAM; cholesterol (Chol); immobilized proteins HSA and AGP. For the lipophilicity determination, MeOH (C-18, Chol) or ACN (IAM) were applied as the organic modifiers. The measurements were performed at pH 7.4 of the mobile phase. The regular changes in the retention of all solutes used as organic modifier content in the mobile phase on three studied stationary phases were found. It is expressed by the Soczewiński–Wachtmeister Equation (1):log k = log kw + S (% organic modifier)(1) where log kw—the intercept; S—the slope of regression curve. […] Log kw as well as S parameters are commonly applied as lipophilicity descriptors.
(§2) HPLC measurements were performed using a liquid chromatograph Knauer (Knauer, Berlin, Germany) with a dual pump, a 20 µL simple injection valve, and a UV–visible detector. The compounds were detected under UV light at 280 nm at room temperature. The retention time of an unretained solute (t0) was determined by the injection of a small amount of citric acid dissolved in water.
A Rexchrom IAM.PC.DD2 (12 μm, 100 × 4.6 mm, 300 Å) (Regis Technologies, Morton Grove, IL, USA) column was used as the stationary phase. The compounds were dissolved at a concentration of 0.5 mg × mL^−1 in MeOH. The mobile phases consisted of different volume fractions of ACN and 20 mM phosphate buffer; the aqueous phase maintained a pH = 7.4 (0.02 M KH2PO4, Na2HPO4 and 0.15 M KCl). The acetonitrile concentration ranged from 0.05 to 0.4 (v/v), depending on the structure of compound, at 0.05 intervals (Table S2 in the Supplementary Materials). The flow rate was 1 mL × min^−1.

[2] = design: method as in Kozyra et al. [31]; conditions: MeOH/20 mM acetate buffer, pH 7.4, ref Kozyra et al. [31], cited from earlier work; for log kw C-18: intercept of Soczewiński–Wachtmeister equation (water as mobile phase); for -S C-18: slope of Soczewiński–Wachtmeister equation
[3] = test system: α1-acid glycoprotein (AGP); assay: HPLC on immobilized AGP column, affinity and % plasma–protein binding; type: in vitro ADME, human; conditions: for log K AGP: binding equilibrium constant from calibration curve (Equation 9) of log k AGP; for fraction unbound: human, pH 7.4, % plasma–protein binding converted from log K AGP (Equation 10), read-out: %PPB AGP (converted); for log k AGP: retention on AGP column, 50 mM ammonium acetate pH 7.4 / propan-2-ol 85/15 (v/v)
Description: (§3) Measurements on HSA and AGP immobilized protein columns were carried out with […] isopropanol content in the aqueous mobile phase.
(§4) The standard calibration curve was used to predict log K values (K—binding equilibrium constant) of investigated compounds to HSA and AGP. Next, the log K values were converted into a percentage of plasma–protein binding (%PPB) of the compounds (Table 2). […] It is the lowest for compound 16 with -NO2 substituent, unsubstituted compound 1, and fluorine derivatives 2 and 9. In a group of […] derivatives in the same position of the phenyl ring, the %PPB to AGP increases with the increase in the atomic weight of the halogen atom and the lipophilicity of the molecule.
as §2
(§5) A human serum albumin (HSA) immobilized on the 5 µm silica gel column 100 × 3 mm (Chiralpac) and an α1-acid glycoprotein (AGP) immobilized on the 5 µm silica gel column 100 × 4 mm (Chiralpac) were used. The compounds were dissolved at 0.5 mg/mL concentration in 50% propan-2-ol and ammonium acetate solution (pH = 7.4) mixtures for HSA measurements. The mobile phase was composed of 50 mM ammonium acetate solution (pH = 7.4) and propan-2-ol at 85/15 (v/v) for AGP, respectively. The flow of mobile phases was 0.5 mL×min^−1. Log k values for the selected mobile phase were determined for all studied compounds and standard substances. The % protein plasma binding (% PPB) values were calculated from the calibration curve according to Valko et al..
(§6) Calibration of the protein columns: The column performance check and the calibration check were performed before measurements. The racemic mixture of warfarin was used for their performance evaluation. The following calibration set of drugs was applied: bromazepam, carbamazepine, diclofenac, nicardipine, nizatidine, piroxicam for HSA and bromazepam, chlorpromazine, imipramine, nicardipine, nizatidine, propranolol, and warfarin for AGP. The analytical standards were purchased from Sigma Aldrich Steinhen, Steinheim am Albuch, Germany). The drugs were dissolved at 0.5 mg/mL concentration in 50% propan-2-ol and ammonium acetate solution mixtures (pH = 7.4). The obtained log k values from HPLC were plotted against the log K values (K—binding equilibrium constant, log K—linearized PPB) based on the literature data for plasma–protein binding (%, PPB). The following relationships were obtained: log KHSA = 0.2513 (±0.0984) + 1.0525 (±0.1171) log k HSA(8) n=6, R=0.9761, R^2 = 0.9528, Radj2 = 0.9410, s = 0.1948 log KAGP = 0.1733 (±0.0574) + 0.8902 (±0.0787) log k AGP(9) n=7, R=0.9810, R^2 = 0.9623, Radj2 = 0.9548, s = 0.1113
(§7) Log K values were converted into %PPB using the following equation [15]:(10) %PPB=101×10^logK/1+10^logK

[4] = HPLC lipophilicity on cholesterol (Chol) stationary phase; type: physicochemical; conditions: pH 7.4; for Log k Chol: Table S3; for log kw Chol: intercept, linear extrapolation to water; for log kw Chol / -S Chol: MeOH/20 mM acetate buffer; for -S Chol: slope of Soczewiński–Wachtmeister equation
Description: as §1, §2
Cogent 4 UDC Cholesterol (150 × 2.1 mm, 4 µm) MicroSolv Technology Corporation (Leland, NC, USA) column was used. The mobile phase consisted of different volume mixtures of MeOH as the organic modifier and 20 mM acetate buffer as the aqueous phase, to obtain pH = 7.4. The concentrations of the organic modifier were in the range from 0.3 to 0.8 (v/v) with step 0.05 or 0.1 (Table S3 in the Supplementary Materials). The flow rate was 0.35 mL × min^−1.

[5] = target: T1, human serum albumin (HSA) (Homo sapiens, UniProt P02768); assay: HPLC on immobilized HSA column, affinity and % plasma–protein binding; type: in vitro ADME; conditions: for log K HSA: binding equilibrium constant from calibration curve (Equation 8) of log k HSA; for fraction unbound: human, pH 7.4, % plasma–protein binding converted from log K HSA (Equation 10), read-out: %PPB HSA (converted); for log k HSA: retention on HSA column, 50 mM ammonium acetate pH 7.4 / propan-2-ol 85/15 (v/v)
T1 construct: purchased Chiralpac
Description: as §3, §4, §2, §5, §6, §7

T1 sequence (P02768 25-609): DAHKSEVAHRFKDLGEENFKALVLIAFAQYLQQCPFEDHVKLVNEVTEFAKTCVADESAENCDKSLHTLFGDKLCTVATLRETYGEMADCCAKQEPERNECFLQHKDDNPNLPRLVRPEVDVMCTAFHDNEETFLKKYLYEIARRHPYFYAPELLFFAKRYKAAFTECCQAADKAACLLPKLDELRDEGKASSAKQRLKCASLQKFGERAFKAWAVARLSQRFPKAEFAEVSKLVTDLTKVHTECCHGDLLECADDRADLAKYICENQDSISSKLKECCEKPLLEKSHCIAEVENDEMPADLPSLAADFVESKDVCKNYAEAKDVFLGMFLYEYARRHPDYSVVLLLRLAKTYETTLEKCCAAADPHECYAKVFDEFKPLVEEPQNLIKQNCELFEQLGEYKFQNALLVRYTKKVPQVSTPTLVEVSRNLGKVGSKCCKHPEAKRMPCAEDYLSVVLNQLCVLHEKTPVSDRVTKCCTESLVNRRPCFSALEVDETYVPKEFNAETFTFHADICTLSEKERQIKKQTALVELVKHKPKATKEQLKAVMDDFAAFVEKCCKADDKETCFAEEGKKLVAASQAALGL

SMILES | Log k IAM ([1]; ACN 0.15 v/v in mobile phase) | Log k IAM ([1]; ACN 0.20 v/v in mobile phase) | Log k IAM ([1]; ACN 0.25 v/v in mobile phase) | Log k IAM ([1]; ACN 0.30 v/v in mobile phase) | Log k IAM ([1]; ACN 0.35 v/v in mobile phase) | log kw IAM [1] | -S IAM [1] | log kw C-18 [2] | -S C-18 [2] | log K AGP [3] | fraction unbound [3] | log k AGP [3] | Log k Chol ([4]; MeOH 0.40 v/v in mobile phase) | Log k Chol ([4]; MeOH 0.45 v/v in mobile phase) | Log k Chol ([4]; MeOH 0.50 v/v in mobile phase) | Log k Chol ([4]; MeOH 0.60 v/v in mobile phase) | Log k Chol ([4]; MeOH 0.80 v/v in mobile phase) | log kw Chol [4] | -S Chol [4] | log K HSA [5] | other results
O=C(COc1ccccc1)NNC(=S)Nc1cccc(F)c1 [Compound 5] | 0.565 | 0.312 | 0.024 | -0.274 | -0.441 | 1.4283 | 5.5312 | 2.4592 | 4.7921 | 0.5586 | 0.209 | 0.4328 | 0.699 | 0.487 | 0.184 | -0.057 | -1.065 | 2.4598 | 4.3726 | 1.1581 | Log k IAM ([1]; ACN 0.05 v/v in mobile phase): 1.193; Log k IAM ([1]; ACN 0.10 v/v in mobile phase): 0.876; Log k Chol ([4]; MeOH 0.35 v/v in mobile phase): 0.957; fraction unbound [5]: 0.056; log k HSA [5]: 0.8615
O=C(COc1ccccc1)NNC(=S)Nc1cccc(Cl)c1 [Compound 6] | 0.982 | 0.647 | 0.333 | -0.082 | -0.247 | 1.9101 | 6.3395 | 2.7672 | 4.8532 | 0.6152 | 0.187 | 0.4964 | 1.016 | 0.766 | 0.422 | 0.160 | -0.975 | 2.9670 | 4.8849 | 1.3217 | Log k IAM ([1]; ACN 0.10 v/v in mobile phase): 1.270; Log k Chol ([4]; MeOH 0.35 v/v in mobile phase): 1.270; fraction unbound [5]: 0.036; log k HSA [5]: 1.0170
O=C(COc1ccccc1)NNC(=S)Nc1cccc(Br)c1 [Compound 7] | 1.120 | 0.777 | 0.413 | -0.038 | -0.196 | 2.1389 | 6.8947 | 2.8451 | 4.8454 | 0.6968 | 0.159 | 0.5881 | 1.284 | 0.913 | 0.720 | 0.347 | -0.987 | 3.4508 | 5.4314 | 2.2501 | Log k Chol ([4]; MeOH 0.70 v/v in mobile phase): -0.309; log k HSA [5]: 1.8991
O=C(COc1ccccc1)NNC(=S)Nc1cccc(I)c1 [Compound 8] | 1.304 | 0.952 | 0.573 | 0.088 | -0.074 | 2.3083 | 6.9157 | 3.0072 | 4.9651 | 0.8556 | 0.114 | 0.7664 | 1.443 | 1.026 | 0.834 | 0.522 | -0.984 | 3.7019 | 5.6623 | 2.1342 | Log k IAM ([1]; ACN 0.40 v/v in mobile phase): -0.404; Log k Chol ([4]; MeOH 0.70 v/v in mobile phase): -0.165; log k HSA [5]: 1.7890
